This is an account of results in patent publication US9458132B2, “Therapeutic compounds and compositions and their use as PKM2 modulators” (AGIOS PHARMACEUTICALS, INC., priority 2012, dated 2016).

What all share (type): biochemical
One assay has as its target PKR R532W (Homo sapiens, UniProt P30613, R532W). Put plainly: PKR mutant assay, PKR R532W AC50. The note with it: mutant PKR R532W enzyme. Here is the method: (§1) • PKR or PKR mutant enzyme solution was diluted in assay buffer. • 2 μL of test compound was added into wells first, and then 180 μL reaction mix was added. • Reactions mixture with test compound was assembled except for ADP, and plates were stored for 60 minutes at room temperature. • 20 uL ADP was added to start reaction at room temperature and reaction progress was measured as changes in absorbance at 340 nm wavelength at room temperature.
(§2) Test Compound Preparation: • Test compound stock was made at 100x concentration in 100% DMSO (10 mM) • 1 to 3 dilutions were made for 11 points (i.e. 50 μl of first concentration added to 100 μl 100% DMSO to yield 3.33 mM, 50 μl of this added to 100 μl DMSO to yield 1.11 mM, and so forth) • 1 to 100 dilution into assay (2 μl in 200 μl) yielded starting concentration of 100 μM, decreasing 3 fold for 11 points • Assay Buffer: 100 mM KCl, 50 mM Tris 7.5, 5 mM MgCl2, 1 mM DTT, 0.03% BSA • Reaction Mixture: PKR mutant enzyme: 80-400 ng/well; ADP: 0.22-1.65 mM; PEP: 0.1-0.5 mM; NADH:180 uM; LDH: 0.5 units (Sigma#59023); DTT: 1 mM; BSA: 0.03%.
(§3) A compound described herein was diluted with DMSO and tested at 1 μM concentration. The enzyme was diluted in 1× Buffer: (100 mM KCl, 50 mM Tris 7.5, 5 mM MgCl2, 1 mM DTT, 0.03% BSA). 2 μL of compound solution was first added into wells, and then 180 μL of enzyme solution was added. Assays were assembled except for ADP, and plates were stored for 60 minutes at RT. 20 μL ADP was added to start the assay and assay output was evaluated using OD340 at SpectraMax. The assay was run at room temperature. • Final concentration: PKR R532W (100 ng/well), Tris pH 7.5 (50 mM), KCl (100 mM), MgCl2 (5 mM), ADP (0.36 mM), PEP (0.1 mM), NADH (180 μM), LDH (0.5 units, Sigma 59023), DTT (1 mM) and BSA (0.03%).

In another assay the target is PKR R510Q (Homo sapiens, UniProt P30613, R510Q). Description: PKR mutant assay, PKR R510Q AC50. The conditions noted are these: mutant PKR R510Q enzyme. How it is done: as §1
Chain of PKR R510Q (P30613 whole entry R510Q): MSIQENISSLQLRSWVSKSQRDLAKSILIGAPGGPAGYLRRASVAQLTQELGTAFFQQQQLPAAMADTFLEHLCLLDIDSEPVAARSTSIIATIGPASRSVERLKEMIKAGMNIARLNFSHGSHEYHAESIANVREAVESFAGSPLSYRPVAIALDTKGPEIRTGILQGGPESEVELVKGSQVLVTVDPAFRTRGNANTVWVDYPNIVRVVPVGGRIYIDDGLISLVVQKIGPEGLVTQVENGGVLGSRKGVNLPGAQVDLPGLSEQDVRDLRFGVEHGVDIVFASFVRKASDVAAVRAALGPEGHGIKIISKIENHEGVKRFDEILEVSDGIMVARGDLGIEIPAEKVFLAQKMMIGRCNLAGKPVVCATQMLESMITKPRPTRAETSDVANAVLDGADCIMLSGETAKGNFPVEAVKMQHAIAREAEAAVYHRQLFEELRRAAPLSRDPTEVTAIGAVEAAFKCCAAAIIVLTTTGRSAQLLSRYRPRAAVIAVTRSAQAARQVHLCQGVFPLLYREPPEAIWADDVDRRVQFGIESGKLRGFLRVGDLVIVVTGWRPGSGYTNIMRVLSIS
as §2, with “0.03%. […]” for “0.03%.”

Another assay deals with PKR WT (Homo sapiens, UniProt P30613). Put plainly: PKR WT enzymatic assay AC50. The note with it: wild type PKR. Here is the method: as §1, §2
Chain of PKR WT (P30613 whole entry): as the sequence (P30613 whole entry R510Q) above, with Q510R counted along it
as §3, with “wt” for “R532W”, “(0.48” for “(0.36”, “(0.15” for “(0.1”

Molecules are shown by their SMILES.

Chain of PKR R532W (P30613 whole entry R532W): as the sequence (P30613 whole entry R510Q) above, with Q510R, R532W counted along it

For `O=C(c1ccc(NS(=O)(=O)c2cccc3cccnc23)cc1F)N1CC(O)(Cc2ccccc2)C1` [Compound 45, N-(4-(3-benzyl-3-hydroxyazetidine-1-carbonyl)-3-fluorophenyl)quinoline-8-sulfonamide], the AC50 at PKR R532W was 0.101 to 1 µM; at PKR R510Q it was 1.01 to 10 µM; on PKR WT, 0.101 to 1 µM.

As to `O=C(c1ccc(NS(=O)(=O)c2ccc(OC(F)(F)F)cc2)cc1)N1CC(O)(Cc2ccccc2)C1` [Compound 65], the AC50 on PKR R532W and at PKR WT was greater than 10 µM each time.

On to `O=C(c1ccc(NS(=O)(=O)c2cccc3nonc23)cc1)N1CC(O)(Cc2ccccc2)C1` [Compound 69], for which the AC50 on PKR R532W, on PKR R510Q and on PKR WT was greater than 10 µM throughout.

`Cc1cccnc1C1(O)CN(C(=O)c2ccc(NS(=O)(=O)c3cccc4cccnc34)cc2)C1` [Compound 59]: the concentration at half-maximal activity (AC50) on PKR R510Q was greater than 10 µM.

`CC(O)C1(O)CN(C(=O)c2ccc(NS(=O)(=O)c3cccc4cccnc34)cc2)C1` (stereo not shown) [Compound 39, N-(4-(3-hydroxy-3-(1-hydroxyethyl)azetidine-1-carbonyl)phenyl)quinoline-8-sulfonamide]: the concentration at half-maximal activity (AC50) on PKR R532W, on PKR R510Q and on PKR WT was greater than 10 µM in each case.

For `O=C(c1ccc(NS(=O)(=O)c2cccc3cccnc23)cc1)N1CC(O)(c2ncccc2OC(F)F)C1` [Compound 25, N-(4-(3-(3-(difluoromethoxy)pyridin-2-yl)-3-hydroxyazetidine-1-carbonyl)phenyl)quinoline-8-sulfonamide], the results for the half-maximal activity concentration (AC50) at PKR R510Q and at PKR WT were 1.01 to 10 µM and 0.101 to 1 µM, respectively.

For the compound `O=C(c1ccc(NS(=O)(=O)c2cccc3cccnc23)cc1)N1CC(O)(c2cccnc2F)C1` [Compound 18, N-(4-(3-(2-fluoropyridin-3-yl)-3-hydroxyazetidine-1-carbonyl)phenyl)quinoline-8-sulfonamide], the figures for the AC50 on PKR R532W, at PKR R510Q and on PKR WT were 0.101 to 1 µM, 1.01 to 10 µM and 0.101 to 1 µM, respectively.

Take `O=C(c1ccc(NS(=O)(=O)c2cccc3cccnc23)cc1)N1CC(O)(c2ncccc2C(F)(F)F)C1` [Compound 24, N-(4-(3-hydroxy-3-(3-(trifluoromethyl)pyridin-2-yl)azetidine-1-carbonyl)phenyl)quinoline-8-sulfonamide]: the AC50 at PKR R510Q fell in the range of 1.01 to 10 µM; on PKR WT it was 0.101 to 1 µM.

Take `O=C(c1ccc(NS(=O)(=O)c2cccc3cccnc23)cc1)N1CC(O)(c2ncccc2F)C1` [Compound 22, N-(4-(3-(3-fluoropyridin-2-yl)-3-hydroxyazetidine-1-carbonyl)phenyl)quinoline-8-sulfonamide]: the values for the half-maximal activity concentration (AC50) on PKR R532W, at PKR R510Q and on PKR WT were 0.101 to 1 µM, 1.01 to 10 µM and 0.101 to 1 µM, respectively.

For the compound `CC(C)CC1(O)CN(C(=O)c2ccc(NS(=O)(=O)c3cccc4cccnc34)cc2)C1` [Compound 35, N-(4-(3-hydroxy-3-isobutylazetidine-1-carbonyl)phenyl)quinoline-8-sulfonamide], the AC50 at PKR R532W fell in the range of 0.101 to 1 µM; at PKR R510Q, 1.01 to 10 µM; on PKR WT it was 0.101 to 1 µM.

`O=C(c1ccc(NS(=O)(=O)c2cccc3cccnc23)cc1)N1CC(O)(CCCO)C1` [Compound 40, N-(4-(3-hydroxy-3-(3-hydroxypropyl)azetidine-1-carbonyl)phenyl)quinoline-8-sulfonamide]: the concentration at half-maximal activity (AC50) is 1.01 to 10 µM on PKR R532W, greater than 10 µM on PKR R510Q and 1.01 to 10 µM at PKR WT.

On to `CC(C)C1(O)CN(C(=O)c2ccc(NS(=O)(=O)c3cccc4cccnc34)cc2)C1` [Compound 32, N-(4-(3-hydroxy-3-isopropylazetidine-1-carbonyl)phenyl)quinoline-8-sulfonamide], for which the AC50 at PKR R532W is 1.01 to 10 µM; on PKR R510Q it was greater than 10 µM; at PKR WT, 1.01 to 10 µM.

`O=C(c1ccc(NS(=O)(=O)c2ccc(C(F)(F)F)cc2)cc1)N1CC(O)(Cc2ccccc2)C1` [Compound 50, N-(4-(3-benzyl-3-hydroxyazetidine-1-carbonyl)phenyl)-4-(trifluoromethyl)benzenesulfonamide] yielded a concentration at half-maximal activity (AC50) on PKR R532W greater than 10 µM.

Regarding `CC(C)(C)C1(O)CN(C(=O)c2ccc(NS(=O)(=O)c3cccc4cccnc34)cc2)C1` [Compound 31, N-(4-(3-(tert-butyl)-3-hydroxyazetidine-1-carbonyl)phenyl)quinoline-8-sulfonamide], the half-maximal activity concentration (AC50) is 1.01 to 10 µM at PKR R532W, greater than 10 µM on PKR R510Q and 1.01 to 10 µM on PKR WT.

`Cn1c(=O)oc2cc(S(=O)(=O)Nc3ccc(C(=O)N4CC(O)(Cc5ccccc5)C4)cc3)ccc21` [Compound 70]: the AC50 at PKR R532W, at PKR R510Q and at PKR WT was greater than 10 µM throughout.

As to `CCC1(O)CN(C(=O)c2ccc(NS(=O)(=O)c3cccc4cccnc34)cc2)C1` [Compound 34, N-(4-(3-ethyl-3-hydroxyazetidine-1-carbonyl)phenyl)quinoline-8-sulfonamide], the concentration at half-maximal activity (AC50) on PKR R532W is 1.01 to 10 µM; on PKR R510Q, greater than 10 µM; on PKR WT, 1.01 to 10 µM.

With `O=C(c1ccc(NS(=O)(=O)c2cccc3cccnc23)cc1)N1CC(O)(C2CC2)C1` [Compound 33, N-(4-(3-cyclopropyl-3-hydroxyazetidine-1-carbonyl)phenyl)quinoline-8-sulfonamide], the AC50 is 1.01 to 10 µM at PKR R532W, greater than 10 µM at PKR R510Q and 1.01 to 10 µM at PKR WT.

`O=C(c1ccc(NS(=O)(=O)c2cccc3cnccc23)cc1)N1CC(O)(Cc2ccccc2)C1` [Compound 48, N-(4-(3-benzyl-3-hydroxyazetidine-1-carbonyl)phenyl)isoquinoline-5-sulfonamide]: the AC50 on PKR R532W and at PKR WT was greater than 10 µM in each case.

Regarding `O=C(c1ccc(NS(=O)(=O)c2cccc(Cl)c2Cl)cc1)N1CC(O)(Cc2ccccc2)C1` [Compound 52, N-(4-(3-benzyl-3-hydroxyazetidine-1-carbonyl)phenyl)-2,3-dichlorobenzenesulfonamide], the results for the AC50 on PKR R532W, at PKR R510Q and at PKR WT were 1.01 to 10 µM, greater than 10 µM and 1.01 to 10 µM, respectively.

For the compound `Cc1cccc(CC2(O)CN(C(=O)c3ccc(NS(=O)(=O)c4cccc5cccnc45)cc3)C2)n1` [Compound 56, N-(4-(3-hydroxy-3-((6-methylpyridin-2-yl)methyl)azetidine-1-carbonyl)phenyl)quinoline-8-sulfonamide], the concentration at half-maximal activity (AC50) was 0.101 to 1 µM at PKR R532W, greater than 10 µM at PKR R510Q and 1.01 to 10 µM on PKR WT.

For `COc1cccnc1C1(O)CN(C(=O)c2ccc(NS(=O)(=O)c3cccc4cccnc34)cc2)C1` [Compound 21, N-(4-(3-hydroxy-3-(3-methoxypyridin-2-yl)azetidine-1-carbonyl)phenyl)quinoline-8-sulfonamide], the AC50 at PKR R510Q and on PKR WT was 1.01 to 10 µM each time.

`CN1C(=O)Cc2cc(S(=O)(=O)Nc3ccc(C(=O)N4CC(O)(Cc5ccccc5)C4)cc3)ccc21` [Compound 66]: the AC50 on PKR R532W and at PKR WT was greater than 10 µM in each case.

In the case of `O=C(c1ccc(NS(=O)(=O)c2cccc3cccnc23)cc1)N1CC(O)(c2ncccc2Cl)C1` [Compound 23, N-(4-(3-(3-chloropyridin-2-yl)-3-hydroxyazetidine-1-carbonyl)phenyl)quinoline-8-sulfonamide], the AC50 is greater than 10 µM on PKR R510Q and 1.01 to 10 µM on PKR WT.
